According to ChEMBL document CHEMBL6078713, “Synthesis and mechanistic studies of 4-aminoquinoline-Isatin molecular hybrids and Schiff's bases as promising antimicrobial agents” (Eur J Med Chem, 2025):
Values after ≈ are worked out from the molar mass of the structure shown. Active and inactive are the calls of the source. No cut-off for these calls is given here.

Assays:
Salmonella typhi [1] = test: Bactericidal activity against Salmonella typhi assessed as inhibition of bacterial growth incubated overnight; type: functional, Salmonella enterica subsp. enterica serovar Typhi; conditions: Salmonella enterica
Salmonella typhi [2] = test: Ratio of MBC for antibacterial activity against Salmonella typhi to MIC for bactericidal activity against Salmonella typhi; type: functional, Salmonella enterica subsp. enterica serovar Typhi
Escherichia coli [3] = test: Antibacterial activity against Escherichia coli MTCC 443 assessed as diameter of zone of inhibition at MIC incubated overnight by disk diffusion method; type: functional
Bacillus subtilis [4] = test: Antibacterial activity against Bacillus subtilis MTCC 736 assessed as inhibition of bacterial growth at 200 ug/ml incubated overnight by spectrophotometry relative to control; type: functional
Pseudomonas aeruginosa [5] = test: Antibacterial activity against Pseudomonas aeruginosa MTCC 2453 assessed as diameter of zone of inhibition at 2 times MIC incubated overnight by disk diffusion method; type: functional
Enterococcus faecalis [6] = test: Antibacterial activity against Enterococcus faecalis MTCC 439 assessed as diameter of zone of inhibition at 2 times MIC incubated overnight by disk diffusion method; type: functional
Salmonella typhi [7] = test: Antibacterial activity against Salmonella typhi assessed as diameter of zone of inhibition at 2 times MIC incubated overnight by disk diffusion method; type: functional, Salmonella enterica subsp. enterica serovar Typhi
Staphylococcus aureus [8] = test: Antibacterial activity against Staphylococcus aureus MTCC 902 assessed as diameter of zone of inhibition at 500 ug/ml by agar disk diffusion method; type: functional; conditions: read-out: DIZ
Staphylococcus aureus [9] = test: Synergistic antibacterial activity against Staphylococcus aureus MTCC 902 assessed as inhibition of bacterial growth incubated overnight in presence of ciprofloxacin by serial dilution based spectrophotometer; type: functional
Escherichia coli [10] = test: Synergistic antibacterial activity against Escherichia coli MTCC 443 assessed as fractional inhibitory concentration index incubated overnight in presence of ciprofloxacin by microdilution checkerboard assay; type: functional
Enterococcus faecalis [11] = test: Antibacterial activity against Enterococcus faecalis MTCC 439 assessed as inhibition of bacterial growth at 200 ug/ml incubated overnight by spectrophotometry relative to control; type: functional
Salmonella typhi [12] = test: Antibacterial activity against Salmonella typhi assessed as diameter of zone of inhibition at MIC incubated overnight by disk diffusion method; type: functional, Salmonella enterica subsp. enterica serovar Typhi
Escherichia coli [13] = test: Bactericidal activity against Escherichia coli MTCC 443 assessed as inhibition of bacterial growth incubated overnight; type: functional
Enterococcus faecalis [14] = test: Synergistic antibacterial activity against Enterococcus faecalis MTCC 439 assessed as inhibition of bacterial growth incubated overnight in presence of ciprofloxacin by serial dilution based spectrophotometer; type: functional
Pseudomonas aeruginosa [15] = test: Bactericidal activity against Pseudomonas aeruginosa MTCC 2453 assessed as inhibition of bacterial growth incubated overnight; type: functional
Escherichia coli [16] = test: Antibacterial activity against Escherichia coli MTCC 443 assessed as diameter of zone of inhibition at 2 times MIC incubated overnight by disk diffusion method; type: functional
Bacillus subtilis [17] = test: Synergistic antibacterial activity against Bacillus subtilis MTCC 736 assessed as fractional inhibitory concentration index incubated overnight in presence of ciprofloxacin by microdilution checkerboard assay; type: functional
Staphylococcus aureus [18] = test: Bactericidal activity against Staphylococcus aureus MTCC 902 assessed as inhibition of bacterial growth incubated overnight; type: functional
Enterococcus faecalis [19] = test: Bactericidal activity against Enterococcus faecalis MTCC 439 assessed as inhibition of bacterial growth incubated overnight; type: functional
Enterococcus faecalis [20] = test: Antibacterial activity against Enterococcus faecalis MTCC 439 assessed as diameter of zone of inhibition at 500 ug/ml by agar disk diffusion method; type: functional; conditions: read-out: DIZ
Escherichia coli [21] = test: Antibacterial activity against Escherichia coli MTCC 443 assessed as diameter of zone of inhibition at 500 ug/ml by agar disk diffusion method; type: functional; conditions: read-out: DIZ
Staphylococcus aureus [22] = test: Synergistic antibacterial activity against Staphylococcus aureus MTCC 902 assessed as fractional inhibitory concentration index incubated overnight in presence of ciprofloxacin by microdilution checkerboard assay; type: functional
Bacillus subtilis [23] = test: Bactericidal activity against Bacillus subtilis MTCC 736 assessed as inhibition of bacterial growth incubated overnight; type: functional
Bacillus subtilis [24] = test: Antibacterial activity against Bacillus subtilis MTCC 736 assessed as diameter of zone of inhibition at 0.5 times MIC incubated overnight by disk diffusion method; type: functional
Pseudomonas aeruginosa [25] = test: Antibacterial activity against Pseudomonas aeruginosa MTCC 2453 assessed as diameter of zone of inhibition at MIC incubated overnight by disk diffusion method; type: functional
Bacillus subtilis [26] = test: Antibacterial activity against Bacillus subtilis MTCC 736 assessed as diameter of zone of inhibition at 2 times MIC incubated overnight by disk diffusion method; type: functional
Bacillus subtilis [27] = test: Antibacterial activity against Bacillus subtilis MTCC 736 assessed as inhibition of bacterial growth incubated overnight by serial dilution based spectrophotometer; type: functional
Escherichia coli [28] = test: Antibacterial activity against Escherichia coli MTCC 443 assessed as inhibition of bacterial growth incubated overnight by serial dilution based spectrophotometer; type: functional
Pseudomonas aeruginosa [29] = test: Antibacterial activity against Pseudomonas aeruginosa MTCC 2453 assessed as inhibition of bacterial growth at 200 ug/ml incubated overnight by spectrophotometry relative to control; type: functional
Salmonella typhi [30] = test: Antibacterial activity against Salmonella typhi assessed as inhibition of bacterial growth incubated overnight by serial dilution based spectrophotometer; type: functional, Salmonella enterica subsp. enterica serovar Typhi; conditions: Salmonella enterica
Enterococcus faecalis [31] = test: Synergistic antibacterial activity against Enterococcus faecalis MTCC 439 assessed as fractional inhibitory concentration index incubated overnight in presence of ciprofloxacin by microdilution checkerboard assay; type: functional
Enterococcus faecalis [32] = test: Antibacterial activity against Enterococcus faecalis MTCC 439 assessed as inhibition of bacterial growth incubated overnight by serial dilution based spectrophotometer; type: functional
Escherichia coli [33] = test: Synergistic antibacterial activity against Escherichia coli MTCC 443 assessed as inhibition of bacterial growth incubated overnight in presence of ciprofloxacin by serial dilution based spectrophotometer; type: functional
Escherichia coli [34] = test: Bacteriostatic activity against Escherichia coli MTCC 443 assessed as reduction in bacterial growth at 2 times MIC measured upto 24 hrs by absorbance based assay; type: functional, organism-based
Bacillus subtilis [35] = test: Ratio of MBC for antibacterial activity against Bacillus subtilis MTCC 736 to MIC for bactericidal activity against Bacillus subtilis MTCC 736; type: functional
Staphylococcus aureus [36] = test: Bacteriostatic activity against Staphylococcus aureus MTCC 902 assessed as reduction in bacterial growth at 2 times MIC measured upto 24 hrs by absorbance based assay; type: functional, organism-based
Staphylococcus aureus [37] = test: Antibacterial activity against Staphylococcus aureus MTCC 902 assessed as inhibition of bacterial growth incubated overnight by serial dilution based spectrophotometer; type: functional
Pseudomonas aeruginosa [38] = test: Antibacterial activity against Pseudomonas aeruginosa MTCC 2453 assessed as inhibition of bacterial growth incubated overnight by serial dilution based spectrophotometer; type: functional
Pseudomonas aeruginosa [39] = test: Synergistic antibacterial activity against Pseudomonas aeruginosa MTCC 2453 assessed as inhibition of bacterial growth incubated overnight in presence of ciprofloxacin by serial dilution based spectrophotometer; type: functional
Salmonella typhi [40] = test: Synergistic antibacterial activity against Salmonella typhi assessed as fractional inhibitory concentration index incubated overnight in presence of ciprofloxacin by microdilution checkerboard assay; type: functional, Salmonella enterica subsp. enterica serovar Typhi
Escherichia coli [41] = test: Ratio of MBC for antibacterial activity against Escherichia coli MTCC 443 to MIC for bactericidal activity against Escherichia coli MTCC 443; type: functional
Pseudomonas aeruginosa [42] = test: Ratio of MBC for antibacterial activity against Pseudomonas aeruginosa MTCC 2453 to MIC for bactericidal activity against Pseudomonas aeruginosa MTCC 2453; type: functional
Bacillus subtilis [43] = test: Antibacterial activity against Bacillus subtilis MTCC 736 assessed as diameter of zone of inhibition at 500 ug/ml by agar disk diffusion method; type: functional; conditions: read-out: DIZ
Salmonella typhi [44] = test: Antibacterial activity against Salmonella typhi assessed as diameter of zone of inhibition at 500 ug/ml by agar disk diffusion method; type: functional, Salmonella enterica subsp. enterica serovar Typhi; conditions: Salmonella enterica, read-out: DIZ
Salmonella typhi [45] = test: Antibacterial activity against Salmonella typhi assessed as diameter of zone of inhibition at 0.5 times MIC incubated overnight by disk diffusion method; type: functional, Salmonella enterica subsp. enterica serovar Typhi
Enterococcus faecalis [46] = test: Antibacterial activity against Enterococcus faecalis MTCC 439 assessed as diameter of zone of inhibition at MIC incubated overnight by disk diffusion method; type: functional
Staphylococcus aureus [47] = test: Antibacterial activity against Staphylococcus aureus MTCC 902 assessed as diameter of zone of inhibition at MIC incubated overnight by disk diffusion method; type: functional
Salmonella typhi [48] = test: Synergistic antibacterial activity against Salmonella typhi assessed as inhibition of bacterial growth incubated overnight in presence of ciprofloxacin by serial dilution based spectrophotometer; type: functional, Salmonella enterica subsp. enterica serovar Typhi; conditions: Salmonella enterica
Pseudomonas aeruginosa [49] = test: Synergistic antibacterial activity against Pseudomonas aeruginosa MTCC 2453 assessed as fractional inhibitory concentration index incubated overnight in presence of ciprofloxacin by microdilution checkerboard assay; type: functional
Pseudomonas aeruginosa [50] = test: Antibacterial activity against Pseudomonas aeruginosa MTCC 2453 assessed as diameter of zone of inhibition at 500 ug/ml by agar disk diffusion method; type: functional; conditions: read-out: DIZ
Bacillus subtilis [51] = test: Antibacterial activity against Bacillus subtilis MTCC 736 assessed as diameter of zone of inhibition at MIC incubated overnight by disk diffusion method; type: functional
Enterococcus faecalis [52] = test: Antibacterial activity against Enterococcus faecalis MTCC 439 assessed as diameter of zone of inhibition at 0.5 times MIC incubated overnight by disk diffusion method; type: functional
Staphylococcus aureus [53] = test: Antibacterial activity against Staphylococcus aureus MTCC 902 assessed as diameter of zone of inhibition at 2 times MIC incubated overnight by disk diffusion method; type: functional
Bacillus subtilis [54] = test: Synergistic antibacterial activity against Bacillus subtilis MTCC 736 assessed as inhibition of bacterial growth incubated overnight in presence of ciprofloxacin by serial dilution based spectrophotometer; type: functional

Fc1ccc(/C=N/CCNc2ccnc3cc(Cl)ccc23)cc1
MBC (Salmonella typhi [1]): 128 µg/mL (≈ 390 µM) | Ratio (Salmonella typhi [2]): 1 | diameter of the inhibition zone (DIZ) (Escherichia coli [3]): 10 mm | inhibition at 200 µg/mL (Bacillus subtilis [4]): 100% | diameter of the inhibition zone (DIZ) (Pseudomonas aeruginosa [5]): 9 mm | diameter of the inhibition zone (DIZ) (Enterococcus faecalis [6]): 7 mm | diameter of the inhibition zone (DIZ) (Salmonella typhi [7]): 11 mm | zone of inhibition at 500 µg/mL (Staphylococcus aureus [8]): 9 mm | MIC (Staphylococcus aureus [9]): 32 µg/mL | fractional inhibitory concentration index (FICI) (Escherichia coli [10]): 0.37 | inhibition at 200 µg/mL (Enterococcus faecalis [11]): 100% | diameter of the inhibition zone (DIZ) (Salmonella typhi [12]): 10 mm | MBC (Escherichia coli [13]): 512 µg/mL (≈ 1560 µM) | MIC (Enterococcus faecalis [14]): 128 µg/mL | MBC (Pseudomonas aeruginosa [15]): 512 µg/mL (≈ 1560 µM) | diameter of the inhibition zone (DIZ) (Escherichia coli [16]): 13 mm | fractional inhibitory concentration index (FICI) (Bacillus subtilis [17]): 2 | MBC (Staphylococcus aureus [18]): > 512 µg/mL | MBC (Enterococcus faecalis [19]): > 512 µg/mL | zone of inhibition at 500 µg/mL (Enterococcus faecalis [20]): 10 mm | zone of inhibition at 500 µg/mL (Escherichia coli [21]): 8 mm | fractional inhibitory concentration index (FICI) (Staphylococcus aureus [22]): 1.12 | MBC (Bacillus subtilis [23]): 256 µg/mL (≈ 781 µM) | diameter of the inhibition zone (DIZ) (Bacillus subtilis [24]): 9 mm | diameter of the inhibition zone (DIZ) (Pseudomonas aeruginosa [25]): 8 mm | diameter of the inhibition zone (DIZ) (Bacillus subtilis [26]): 13 mm | MIC (Bacillus subtilis [27]): 256 µg/mL (≈ 781 µM) | MIC (Escherichia coli [28]): 512 µg/mL (≈ 1560 µM) | inhibition at 200 µg/mL (Pseudomonas aeruginosa [29]): 100% | MIC (Salmonella typhi [30]): 128 µg/mL (≈ 390 µM) | fractional inhibitory concentration index (FICI) (Enterococcus faecalis [31]): 1.5 | MIC (Enterococcus faecalis [32]): 256 µg/mL (≈ 781 µM) | MIC (Escherichia coli [33]): 64 µg/mL | Activity (Escherichia coli [34]): Active | Ratio (Bacillus subtilis [35]): 1 | Activity (Staphylococcus aureus [36]): Active | MIC (Staphylococcus aureus [37]): 256 µg/mL (≈ 781 µM) | MIC (Pseudomonas aeruginosa [38]): 512 µg/mL (≈ 1560 µM) | MIC (Pseudomonas aeruginosa [39]): 256 µg/mL | fractional inhibitory concentration index (FICI) (Salmonella typhi [40]): 0.187 | Ratio (Escherichia coli [41]): 1 | Ratio (Pseudomonas aeruginosa [42]): 1 | zone of inhibition at 500 µg/mL (Bacillus subtilis [43]): 10 mm | zone of inhibition at 500 µg/mL (Salmonella typhi [44]): 11 mm | diameter of the inhibition zone (DIZ) (Salmonella typhi [45]): 10 mm | diameter of the inhibition zone (DIZ) (Enterococcus faecalis [46]): 7 mm | diameter of the inhibition zone (DIZ) (Staphylococcus aureus [47]): 8 mm | MIC (Salmonella typhi [48]): 16 µg/mL | fractional inhibitory concentration index (FICI) (Pseudomonas aeruginosa [49]): 1.5 | zone of inhibition at 500 µg/mL (Pseudomonas aeruginosa [50]): 7 mm | diameter of the inhibition zone (DIZ) (Bacillus subtilis [51]): 9 mm | diameter of the inhibition zone (DIZ) (Enterococcus faecalis [52]): 7 mm | diameter of the inhibition zone (DIZ) (Staphylococcus aureus [53]): 10 mm | MIC (Bacillus subtilis [54]): 256 µg/mL
